Assay results taken from PMC12251482, “Floridoside Phosphotriester Derivatives: Synthesis and Inhibition of Human Neutrophils’ Oxidative Burst” (Molecules, 2025).

Assays:
[1] = system: PMA-stimulated human neutrophils; assay: PMA-induced neutrophils' oxidative burst, oxidation of luminol (chemiluminescence); type: cell-based; details: PMA 160 nM, mean ± SEM; for Luminol: highest obtained % of inhibition / inhibition at 100 µM: at 100 µM; for inhibition at 100 µM / IC50: Homo sapiens, Neutrophil; for inhibition at 100 µM: read-out: Luminol: highest obtained % of inhibition
Experimental: Luminol is easily oxidized by reactive species produced during neutrophils’ oxidative burst, resulting in a chemiluminescent signal. The effect of the compounds under study on the modulation of neutrophil oxidative burst was determined after stimulation with PMA, a known neutrophil activator, because its effect is closely analogous to that obtained during the phagocytic process. Following a previously reported method, in a 96-well plate, neutrophils were incubated in the dark at 37 °C for 5 min with luminol (500 μM) and the tested compounds (10–100 μM) or DMSO (final concentration 4%). Quercetin, a flavonoid known for its anti-inflammatory activity (0.3–5.0 μM), and the inhibitor of NADPH oxidase, DPI (0.01–10 μM), were used as controls. After incubation, PMA (160 nM) was added, and the chemiluminescence was measured in a microplate reader (Synergy HT, BIO-TEK Instruments, Inc., Winooski, VT, USA). Kinetic readings were initiated immediately after cell stimulation. Measurements were taken at the peak of the curve. […] Effects are expressed as the inhibition percentage of luminol oxidation. The results obtained represent at least three independent experiments. […]
3.4 Evaluation of neutrophils' oxidative burst
3.4.1 Oxidation of luminol
Luminol is easily oxidized by reactive species produced during neutrophils’ oxidative burst, resulting in a chemiluminescent signal. The eﬀect of the compounds under study on the modulation of neutrophil oxidative burst was determined after stimulation with PMA, a known neutrophil activator, because its eﬀect is closely analogous to that obtained during the phagocytic process. Following a previously reported method, in a 96-well plate, neutrophils were incubated in the dark at 37 °C for 5 minutes with luminol (500 µM) and the tested compounds (10 - 100 µM) or DMSO (ﬁnal concentration 4%). Quercetin, a ﬂavonoid known for its anti-inﬂammatory activity (0.3 - 5.0 µM), and the inhibitor of NADPH oxidase, DPI (0.01 - 10 µM), were used as positive and negative controls, respectively. After incubation, PMA (160 nM) was added, and the chemiluminescence was measured in a microplate reader (Synergy HT, BIO-TEK Instruments, Inc., Winooski, VT, USA). Kinetic readings were initiated immediately after cell stimulation. Measurements were taken at the […]
peak of the curve. […] Eﬀects are expressed as the inhibition percentage of luminol oxidation. The obtained results represent at least three independent experiments.

[2] = system: PMA-stimulated human neutrophils; assay: HOCl generation by PMA-stimulated neutrophils, oxidation of APF; type: cell-based; details: PMA 160 nM, mean ± SEM; for APF: highest obtained % of inhibition / inhibition at 50 µM: at 50 µM; for inhibition at 50 µM / IC50: Homo sapiens, Neutrophil; for inhibition at 50 µM: read-out: APF: highest obtained % of inhibition
Experimental: APF is a non-fluorescent derivative of fluorescein, which is oxidized by HOCl, ONOO^−, and HO^• [87], in a concentration-dependent manner. Its selectivity was tested using the myeloperoxidase (MPO) inhibitor, 4-aminobenzoic acid hydrazide (ABAH). The addition of ABAH to human neutrophils, stimulated with PMA, decreased the APF-dependent fluorescence signal to the level of the control assay, ruling out the involvement of HO^• and ONOO^− [88]. The previously established methodology for monitoring oxidative burst modulation was adapted. In a 96-well plate, neutrophils (2 × 10^6 cells/mL) were incubated in the dark at 37 °C for 5 min with APF (2 μM) and the tested compounds (10–100 μM) or DMSO (4%). Quercetin (0.3–5.0 μM) and DPI (0.01–10 μM) were used as controls. After incubation, PMA (160 nM) was added, and the fluorescence (excitation at 495 nm and emission at 528 nm) was measured in a microplate reader (Synergy HT, BIO-TEK Instruments, Inc., Winooski, VT, USA). Kinetic readings were initiated immediately after the addition of APF. Obtained values correspond to the slope measured between 5 and 15 min. Effects are expressed as the percentage inhibition of APF oxidation. The results obtained represent at least three independent experiments.
APF is a non-ﬂuorescent derivative of ﬂuorescein, which is oxidized by HOCl, [20] ONOO-, and HO• [21] in a concentration- dependent manner. Its selectivity was tested using the myeloperoxidase (MPO) inhibitor, 4-aminobenzoic acid hydrazide (ABAH). The addition of ABAH to human neutrophils, stimulated with PMA, decreased the APF-dependent ﬂuorescence signal to the level of the control assay, ruling out the involvement of HO• and ONOO− [22]. The previously established methodology for monitoring oxidative burst modulation was adapted. In a 96-well plate, neutrophils (2 x 10^6 cells/mL) were incubated in the dark at 37 °C for 5 minutes with APF (2 µM) and the tested compounds (10 - 100 µM) or DMSO (4%). Quercetin (0.3 - 5.0 µM) and DPI (0.01 - 10 µM) were used as positive and negative controls, respectively. After incubation, PMA (160 nM) was added, and the ﬂuorescence (excitation at 495 nm and emission at 528 nm) was measured in a microplate reader (Synergy HT, BIO-TEK Instruments, Inc., Winooski, VT, USA). Kinetic readings were initiated immediately after the addition of APF. Obtained values correspond to the slope measured between 5 and 15 minutes. Eﬀects are expressed as the percentage inhibition of APF oxidation. The obtained results represent at least three independent experiments. […]
(§1) GraphPad Prism 6 software was used to plot the inhibition percentage versus compound concentration curves, enabling the determination of the concentration required to achieve 50% inhibition (IC50). GraphPad Prism 6 software was also used to perform all statistical analyses.
(§2) […] was estimated by applying the one-way analysis (ANOVA), followed by the Bonferroni’s multiple comparisons test. In all cases, p-values < 0.05 were considered statistically signiﬁcant. The results are expressed as mean ± standard error of the mean (SEM).

[3] = system: PMA-stimulated human neutrophils; assay: H2O2 generation by PMA-stimulated neutrophils, oxidation of Amplex Red; type: cell-based; details: PMA 160 nM, mean ± SEM; for Amplex Red: highest obtained % of inhibition / inhibition at 50 µM: at 50 µM; for inhibition at 50 µM / IC50: Homo sapiens, Neutrophil; for inhibition at 50 µM: read-out: Amplex Red: highest obtained % of inhibition
Experimental: Amplex Red is a highly sensitive and chemically stable fluorescent probe for the extracellular detection of H2O2 [82]. The methodology used previously for monitoring the modulation of the oxidative burst was adapted. In a 96-well plate, neutrophils (2 × 10^6 cells/mL) were incubated in the dark at 37 °C for 5 min with Amplex Red (25 μM), horseradish peroxidase (0.25 U/mL), and the compounds under study (10–100 μM) or DMSO (4%). Quercetin (0.3–5.0 μM) and DPI (0.01–10 μM) were used as controls. After incubation, PMA (160 nM) was added, and the fluorescence (excitation at 530 nm and emission at 590 nm) was measured in a microplate reader (Synergy HT, BioTek Instruments, Inc., Winooski, VT, USA). Obtained values correspond to the slope measured between 5 and 10 min. Effects are expressed as the percentage inhibition of Amplex Red oxidation. The results obtained represent at least three independent experiments. […] 3.4.3 Oxidation of Amplex Red
Amplex Red is a highly sensitive and chemically stable ﬂuorescent probe for the extracellular detection of H2O2 [16]. The methodology used previously for monitoring the modulation of the oxidative burst was adapted.
In a 96-well plate, neutrophils (2 x 10^6 cells/mL) were incubated in the dark at 37 °C for 5 minutes with Amplex Red (25 µM), horseradish peroxidase (0.25 U/mL) , and the compounds under study (10 - 100 µM) or DMSO (4%). Quercetin (0.3 - 5.0 µM) and DPI (0.01 - 10 µM) were used as positive controls for inhibition. After incubation, PMA (160 nM) was added, and the ﬂuorescence (excitation at 530 nm and emission at 590 nm) was measured in a microplate reader (Synergy HT, BioTek Instruments, Inc., Winooski, VT, USA). Obtained values correspond to the slope measured between 5 and 10 minutes. Eﬀects are expressed as the percentage inhibition of Amplex Red oxidation. The obtained results represent at least three independent experiments.
as §1, §2

[4] = system: RAW 264.7 macrophages; parameters: method as in PMID 11292070, doi:10.1016/j.fbio.2025.105894; details: read-out: IC50 for the inhibition of •NO; cited from earlier work

With “3-Hydroxy-2-(galactopyranosyl)propyl bis(3-phenylpropyl) phosphate [Compound 1f]” the “Luminol: highest obtained % of inhibition” value [1] was under 20% ^100µM, the “APF: highest obtained % of inhibition” value [2] was under 20% ^50µM and the “Amplex Red: highest obtained % of inhibition” value [3] was under 20% ^50µM.
With “3-Hydroxy-2-galactopyranosylpropyl (bis(2-aminoethyl)) phosphate [Compound 1c]” the “Luminol: highest obtained % of inhibition” value [1] was under 20% ^100µM, the “APF: highest obtained % of inhibition” value [2] was 22 ± 8% ^50µM and the “Amplex Red: highest obtained % of inhibition” value [3] was under 20% ^50µM.
In the case of `NCCOP(=O)(OCCN)OCC1OC(OC(CO)CO)C(O)C(O)C1O` (stereo not shown) [Compound 1d], the inhibition at 100 µM [1] is reported as under 20%, the inhibition at 50 µM [2] is reported as 21 ± 6% and the inhibition at 50 µM [3] is reported as 30 ± 9%.
`COc1ccc(CCCOP(=O)(OCCCc2ccc(OC)c(OC)c2)OCC(CO)OC2OC(CO)C(O)C(O)C2O)cc1OC` (stereo not shown) [Compound 1g, 3-Hydroxy-2-(galactopyranosyl)propyl (bis(3-(3,4-dimethoxyphenyl)propyl) phosphate] showed an inhibition at 100 µM [1] of under 20%, an inhibition at 50 µM [2] of under 20% and an inhibition at 50 µM [3] of under 20%.
Compound `c1ccc2c(c1)[I+]c1ccccc1-2` [DPI, diphenyleneiodonium chloride, reference compound] has an IC50 [1] of 0.08 ± 0.01 µM, an IC50 [2] of 0.03 ± 0.003 µM and an IC50 [3] of 0.06 ± 0.004 µM.
Compound `O=c1c(O)c(-c2ccc(O)c(O)c2)oc2cc(O)cc(O)c12` [Quercetin, quercetin, reference compound] has an IC50 [1] of 1.2 ± 0.2 µM, an IC50 [2] of 2.4 ± 0.2 µM and an IC50 [3] of 4.1 ± 0.3 µM.
In the case of `COc1ccc2c(c1)c(CC(=O)O)c(C)n2C(=O)c1ccc(Cl)cc1` [indomethacin], the IC50 [4] is given as 10.1 µM.
